Results on two molecules are retold here after ChEMBL document CHEMBL2177086, “Design and synthesis of a stable oxidized phospholipid mimic with specific binding recognition for macrophage scavenger receptors” (J Med Chem, 2012).

Calls of active or inactive are those of the source. No cut-off for these calls is given here.

The target of series [1] is Platelet glycoprotein 4 (Mus musculus) (UniProt Q08857). The series can be described thus: Displacement of Bt-CuOxLDL from CD36 receptor in mouse J774 cells after 2 hrs by chemiluminescent assay. Type of series: cell-based.
The target of series [2] is Platelet glycoprotein 4 (Homo sapiens) (UniProt P16671). The series can be described thus: Displacement of CuOxLDL from CD36 receptor expressed in CHO cells. In kind it is cell-based.
The nature of series [3]: Binding affinity to monoclonal antibody E06 by solid phase chemiluminescent immunoassay.
Series [4] deals with J774. Description: Cytotoxicity against mouse J774 macrophages assessed as effect on protein content up to 72 hrs. In kind it is cell-based. Conditions: j774, 72 h.
For series [5], the system named is J774. The series can be described thus: Cytotoxicity against mouse J774 macrophages assessed as effect on cell number up to 72 hrs. The note with it: j774, 72 h. Type of series: cell-based.

Chain of Platelet glycoprotein 4 (Mus musculus) (Q08857 whole entry): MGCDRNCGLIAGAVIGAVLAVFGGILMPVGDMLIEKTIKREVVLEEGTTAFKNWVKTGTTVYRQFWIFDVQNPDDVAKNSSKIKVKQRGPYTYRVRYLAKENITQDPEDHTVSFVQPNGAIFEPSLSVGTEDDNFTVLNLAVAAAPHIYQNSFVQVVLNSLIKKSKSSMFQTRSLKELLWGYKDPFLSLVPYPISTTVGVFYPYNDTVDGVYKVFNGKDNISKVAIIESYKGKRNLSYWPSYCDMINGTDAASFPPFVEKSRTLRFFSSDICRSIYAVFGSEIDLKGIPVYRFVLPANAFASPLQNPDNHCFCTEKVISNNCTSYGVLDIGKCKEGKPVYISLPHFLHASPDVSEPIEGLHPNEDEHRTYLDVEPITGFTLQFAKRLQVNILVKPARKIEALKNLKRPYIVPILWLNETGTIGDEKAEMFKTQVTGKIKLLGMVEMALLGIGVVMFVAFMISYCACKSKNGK
Chain of Platelet glycoprotein 4 (Homo sapiens) (P16671 whole entry): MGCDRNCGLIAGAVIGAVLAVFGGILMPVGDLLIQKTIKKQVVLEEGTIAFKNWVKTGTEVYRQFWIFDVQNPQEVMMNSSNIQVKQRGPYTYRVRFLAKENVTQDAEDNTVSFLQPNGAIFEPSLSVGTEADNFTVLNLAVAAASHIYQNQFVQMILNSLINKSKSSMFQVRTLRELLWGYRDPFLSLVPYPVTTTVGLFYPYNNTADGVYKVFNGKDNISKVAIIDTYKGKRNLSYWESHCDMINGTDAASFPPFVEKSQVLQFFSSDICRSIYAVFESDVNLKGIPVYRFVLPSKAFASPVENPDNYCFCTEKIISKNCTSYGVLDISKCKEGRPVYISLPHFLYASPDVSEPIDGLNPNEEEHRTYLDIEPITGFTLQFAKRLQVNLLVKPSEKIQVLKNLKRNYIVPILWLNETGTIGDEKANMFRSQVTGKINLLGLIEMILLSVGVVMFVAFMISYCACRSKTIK

For the molecule H-TGTKGG-OH, the inhibition entry in series [1] was “inactive”.
In the case of `CCCCCCCCCCCCCCCC(=O)OC[C@H](COP(=O)([O-])OCC[N+](C)(C)C)OC(=O)CCCCN(C)CCCC[C@H](NC(=O)[C@@H](NC(=O)CNC(=O)[C@@H](NC(C)=O)[C@@H](C)O)[C@@H](C)O)C(=O)NCC(=O)NCC(=O)O`, the outcome in series [2] and in series [3] was Active. The Activity result in series [4] is “Non-toxic”; in series [5], “Non-toxic”; in series [1], more than 99%.
